Measurements taken from article PMC8289286, “In Silico, In Vitro, and In Vivo Evaluation of Precipitation Inhibitors in Supersaturated Lipid-Based Formulations of Venetoclax” (Molecular Pharmaceutics, 2021).
≈ marks a conversion by molar mass, not a printed value. Read-outs that look alike come from different tables or passages of the source.

Key:
[1] = Venetoclax solubility in FaSSIF and FaSSIF with dissolved PI; type: physicochemical; settings: FaSSIF without PI, reference of the PI test
Description: Additionally, the solubility of venetoclax was determined in FaSSIF with dissolved PI. […] 250 μL of samples were taken at 3, 6, and 24 h and filtered through a 0.2 μm syringe filter (Whatman Spartan 13/0.2), diluted with acetonitrile (containing 0.5% (v/v) TFA), and analyzed by HPLC as described above.

[2] = cited from earlier work
[3] = Biorelevant solubility in FaSSIF and FeSSIF; type: physicochemical
Description: FaSSIF and fed state simulated intestinal fluid (FeSSIF) was prepared according to the instructions by biorelevant.com. FeSSIF was used directly, whereas FaSSIF was left at room temperature for 2 h prior to usage. Excess venetoclax was added to 2 mL of biorelevant media and placed in a water bath shaker at 200 shakes/min (GLS400, Grant Instruments, UK) and 37 °C. Samples were taken after 3, 6, and 24 h and centrifuged at 21,380g and 37 °C for 15 min (Mikro 200 R, Andreas Hettich GmbH & Co. KG, Germany). The supernatant was transferred to a new sample tube and centrifuged again under identical conditions. Subsequently, the supernatant was diluted with the mobile phase before analysis by HPLC.
The samples were analyzed using an Agilent 1200 series HPLC system (Agilent Technology Inc., US) that comprised a binary pump, degasser, autosampler, and variable wavelength detector. Data were analyzed using the software EZChrom Elite version 3.2. Venetoclax was separated from the sample matrix with a Zorbax Eclipse Plus-C18 column (5 μm, 4.6 mm × 150 mm) including a Zorbax Eclipse Plus-C18 guard column (5 μm, 4.6 mm × 12.5 mm) at 40 °C. The mobile phase consisted of (a) acetonitrile with 0.5% trifluoroacetic acid (TFA) and (b) water with 0.5% TFA at a ratio of 53:47 (a/b v/v) and was used at a flow rate of 1 mL/min. The injection volume was 20 μL and the detection wavelength was set to 316 nm. The limit of detection was 20 ng/mL and the limit of quantification (LOQ) was 65 ng/mL determined using the standard error of the y-intercept according to the International Council for Harmonization (ICH) Q2 guidelines.[34]

[4] = cited from earlier work; remark: listed apart in the source
[5] = parameters: method as in PMID 28993217; settings: cited from earlier work

- solubility [1]: 5.2 ± 0.4 µg/mL (≈ 5.99 µM)
- share of a 100 mg dose dissolved in 250 mL gastrointestinal fluid at FaSSIF solubility ([3]; FaSSIF, 100 mg dose in 250 mL): 1.7%
- solubility ([3]; FaSSIF, 37 °C, n = 3): 6.8 ± 1.8 µg/mL (≈ 7.83 µM)
- solubility increase in the fed state (FeSSIF) over FaSSIF ([3]; FeSSIF vs FaSSIF, 37 °C): 3.9 fold
- share of a 100 mg dose dissolved at FeSSIF solubility ([3]; FeSSIF, 100 mg dose): 6.7%
SMILES: CC1(C)CCC(CN2CCN(c3ccc(C(=O)NS(=O)(=O)c4ccc(NCC5CCOCC5)c([N+](=O)[O-])c4)c(Oc4cnc5[nH]ccc5c4)c3)CC2)=C(c2ccc(Cl)cc2)C1 [venetoclax]
- previously reported venetoclax bioavailability in fasted pigs [2]: 17.3 ± 5.5%
- BCS classification ([4]; based on low aqueous solubility and permeability): BCS class IV
- log P [4]: 5.5
- amorphous solubility in FaSSIF ([5]; pH 5.3): 20.7 ± 0.5 µg/mL
- amorphous solubility in FaSSIF ([5]; pH 6.9): 33.7 ± 13.5 µg/mL
- amorphous solubility in FeSSIF ([5]; FeSSIF, pH 5.3): 26.4 ± 0.2 µg/mL
- amorphous solubility in FeSSIF ([5]; FeSSIF, pH 6.9): 54.6 ± 2.0 µg/mL
- reported amorphous solubility in FeSSIF ([5]; FeSSIF): 26.4 to 54.6 µg/mL
